Assay results from PMC6208443 (Nature Communications, 2018).

Legend:
Assay type in all cases: binding, Arabidopsis thaliana
Details in all cases: result in words
CMT3 = experiment: Peptide affinity purification and mass spectrometry, CMT3
Description: (§1) To extract the nuclear proteins for peptide affinity purification, 1 g of wild-type Arabidopsis flowers was harvested and ground in liquid nitrogen. […] The filtrates were centrifuged at 2000 g for 15 min at 4 °C to precipitate the nuclei. Nuclear pellets were washed two times with 1 ml of Honda buffer and then were resuspended in 600 μl of Nuclei Lysis Buffer (50 mM Tris-HCl pH 8.0, 150 mM NaCl, 1% NP40, 0.5 mM DTT, 1 mM PMSF, Roche protease inhibitor cocktail). After sonication, nuclei extracts were centrifuged at 20,000 g for 10 min at 4 °C. The supernatant was incubated with 2 μg of biotinylated histone peptides and Streptavidin Magnetic Beads (Thermo Scientific, 88816) for 3 h with rotation at 4 °C. […] After incubation, beads were washed three times with wash buffer 1 (320 mM NaCl, 50 mM Tris-HCl pH 8.0, 0.5% NP40), and three times with wash buffer 2 (150 mM NaCl, 50 mM Tris-HCl pH 8.0).
(§2) For LC-MS/MS analysis, IP beads with captured proteins were lysed in 12 mM sodium deoxycholate (SDC)-sodium lauroyl sarcosinate (SLS): 100 mM Tris-HCl (pH 8.5), 12 mM SDC, and 12 mM SLS. Proteins were reduced and alkylated with 10 mM tris-(2-carboxyethyl) phosphine and 40 mM chloroacetamide at 95 °C for 5 min. The supernatant containing reduced and alkylated proteins was transferred into a new Eppendorf tube and diluted fivefold with 50 mM triethylammonium hydrogen carbonate buffer and digested with 500 ng trypsin (Sigma) overnight. The SDC and SLS were removed by adding 100% acetyl acetate in a ratio 1:1 (vol/vol) sample to acetyl acetate volume ratio. Samples were acidified with 10% trifluoroacetic acid to pH ~3, and desalted by a custom-made stage tip with a styrene divinyl benzene (SDB-XC) membrane (3 M). The dried peptides were resuspended in 30 μL of 0.3% formic acid (FA) with 3% acetonitrile (ACN), quantified by BCA assay (Thermo Fisher Scientific), and injected into an Easy-nLC 1000 (Thermo Fisher Scientific). Peptides were separated on a 45 cm in-house packed column (360 μm OD × 75 μm ID) containing C18 resin (2.2 μm, 100 Å, Michrom Bioresources) with a 30 cm column heater (Analytical Sales and Services) set at 60 °C. The mobile phase buffer consisted of 0.1% FA in ultra-pure water (buffer A) with an eluting buffer of 0.1% FA in 80% ACN (buffer B) run over a linear 65 min gradient of 5%-30% buffer B at a flow rate of 250 nL/min. The Easy-nLC 1000 was coupled online with a Velos Pro LTQ-Orbitrap mass spectrometer (Thermo Fisher Scientific). […] Search was performed with full tryptic digestion and allowed a maximum of two missed cleavages on the peptides analyzed from the sequence database. […]

CMT2 = experiment: Peptide affinity purification and mass spectrometry, CMT2
Description: as §1, §2

EDM2 = experiment: Peptide affinity purification and mass spectrometry, EDM2
Description: as §1
(§3) For LC-MS/MS analysis, IP beads with captured proteins were lysed in 12 mM sodium deoxycholate (SDC)-sodium lauroyl sarcosinate (SLS): 100 mM Tris-HCl (pH 8.5), 12 mM SDC, and 12 mM SLS. Proteins were reduced and alkylated with 10 mM tris-(2-carboxyethyl) phosphine and 40 mM chloroacetamide at 95 °C for 5 min. The supernatant containing reduced and alkylated proteins was transferred into a new Eppendorf tube and diluted fivefold with 50 mM triethylammonium hydrogen carbonate buffer and digested with 500 ng trypsin (Sigma) overnight. The SDC and SLS were removed by adding 100% acetyl acetate in a ratio 1:1 (vol/vol) sample to acetyl acetate volume ratio. Samples were acidified with 10% trifluoroacetic acid to pH ~3, and desalted by a custom-made stage tip with a styrene divinyl benzene (SDB-XC) membrane (3 M). The dried peptides were resuspended in 30 μL of 0.3% formic acid (FA) with 3% acetonitrile (ACN), quantified by BCA assay (Thermo Fisher Scientific), and injected into an Easy-nLC 1000 (Thermo Fisher Scientific). Peptides were separated on a 45 cm in-house packed column (360 μm OD × 75 μm ID) containing C18 resin (2.2 μm, 100 Å, Michrom Bioresources) with a 30 cm column heater (Analytical Sales and Services) set at 60 °C. The mobile phase buffer consisted of 0.1% FA in ultra-pure water (buffer A) with an eluting buffer of 0.1% FA in 80% ACN (buffer B) run over a linear 65 min gradient of 5%-30% buffer B at a flow rate of 250 nL/min. The Easy-nLC 1000 was coupled online with a Velos Pro LTQ-Orbitrap mass spectrometer (Thermo Fisher Scientific). The mass spectrometer was operated in the data-dependent mode in which a full MS scan (from m/z 350–1500 with the resolution of 30,000 at 400 m/z) was followed by the 10 most intense ions being subjected to collision-induced dissociation (CID) fragmentation. […]

AGDP1 = experiment: Peptide affinity purification and mass spectrometry, AGDP1
Description: as §1, §3

Substance: H3(1-21): synthesized biotinylated H3(1-21) peptide, EMD Millipore
- presence in pull-down products (CMT3): not in H3 pull-down products
- presence in pull-down products (CMT2): not in H3 pull-down products
- presence in pull-down products (EDM2): not in H3 pull-down products
- identification from pull-down samples (AGDP1): not from the H3 pull-down samples

Substance: H3(1-21)K9me1: synthesized biotinylated H3(1-21)K9me1 peptide, EMD Millipore
- presence in pull-down products (CMT3): present
- presence in pull-down products (CMT2): present
- presence in pull-down products (EDM2): present
- identification from pull-down samples (AGDP1): identified

Substance: H3(1-21)K9me2: synthesized biotinylated H3(1-21)K9me2 peptide, EMD Millipore
- presence in pull-down products (CMT3): present
- presence in pull-down products (CMT2): present
- presence in pull-down products (EDM2): present
- identification from pull-down samples (AGDP1): identified

Substance: H3(1-21)K9me3: synthesized biotinylated H3(1-21)K9me3 peptide, EMD Millipore
- presence in pull-down products (CMT3): present
- presence in pull-down products (CMT2): present
- presence in pull-down products (EDM2): present
- identification from pull-down samples (AGDP1): identified
